Laboratory results published in US6602860B1, “Crystalline mixtures of partial methyl ethers of beta-cyclodextrin and related compounds” (priority 1999, dated 2003).

Test: Solubilizing potency: solubility of hydrocortisone in aqueous solutions of cyclodextrin derivatives
Format: physicochemical
Settings: 5% (w/w) aqueous solutions of the derivative; P264 and P258 crystalline components used without heat drying

Solubility Of Hydrocortisone: 8800 µg/mL
Substance: Heptakisdimethylbetacyclodextrin
